“Also recorded” adds a separate entry of the source. Where two headings read alike, the source gives them in different places.
Assays:
[1] = molecular target: T1, Leucine Aminopeptidase (LAP), type III-CP (Sus scrofa, UniProt P28839); test: Leucine aminopeptidase in vitro hydrolysis (TLC); format: biochemical; settings: 1 mg/ml AA-CHP, pH 9.0, up to 12 hours
T1 sequence (P28839 33-519): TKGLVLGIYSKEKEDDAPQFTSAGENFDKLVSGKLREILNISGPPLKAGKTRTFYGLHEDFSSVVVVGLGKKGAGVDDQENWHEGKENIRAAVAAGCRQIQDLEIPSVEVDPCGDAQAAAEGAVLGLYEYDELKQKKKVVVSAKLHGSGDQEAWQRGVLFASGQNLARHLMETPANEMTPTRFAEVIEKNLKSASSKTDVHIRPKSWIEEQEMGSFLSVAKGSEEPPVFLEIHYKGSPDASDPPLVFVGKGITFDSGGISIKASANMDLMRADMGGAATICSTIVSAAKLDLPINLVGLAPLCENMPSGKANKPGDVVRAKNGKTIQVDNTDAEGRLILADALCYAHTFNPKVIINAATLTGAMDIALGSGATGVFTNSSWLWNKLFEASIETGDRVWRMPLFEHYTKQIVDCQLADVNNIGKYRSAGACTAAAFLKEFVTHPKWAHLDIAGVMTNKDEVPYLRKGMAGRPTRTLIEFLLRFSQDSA
Description: Leucine Aminopeptidase (LAP), type III-CP (Sigma) was stored at 0°-4° C. in 0.75M saturated […], 0.1M Tris and 0.005M MgCl2 (pH 8) and contained 210 U/ml. Prior to the hydrolysis experiment, LAP (50λ) was activated by incubating it in 0.025M MnCl2 (0.2 ml), 0.5M Tris.HCl buffer (pH 9.0, 0.2 ml) and demineralized and ultra-filtered H2 O (0.6 ml) for at least 2 hours at 37° C. To each sample test tube was added AA-CHP (1.5 mg) in 0.02M Tris HCl buffer (pH 9.0, 0.5 ml) so that the final concentration was 1 mg/ml AA-CHP. […] They were dried and sprayed with 0.2% Ninhydrin in EtOH and the color was developed at 85° C. for 5 minutes. The in vitro hydrolysis of Leu-CHP by LAP was also concomitantly studied by scanning spectrophotometry at different times after the start of incubation with the enzyme. A blank reference cell containing only enzyme and buffer was used.

[2] = In vivo toxicity (LD50, survival, histology); design: species or system mice; key to Histologic Findings: Acute Renal Tubular Necrosis / Histologic Findings: Pulmonary Congestion and Edema: 0: absent; +: mild; ++: moderate; +++: severe; settings: mouse, in vivo, ip, mice; for NOAEL: read-out: non-toxic up to (dose)
Description: (§1) Female DBA/2J mice, 8 weeks old, were injected intraperitoneally with test compound solutions (X, XI, XII, XIII, […]) to give a final concentration of 30 mg/ml.
(§2) In those groups receiving both test compound and cysteine, cysteine (1000 mg/kg) was given i.p. both 1 hour prior to and 2 or 3 hours after i.p. injection of the test compound. In Table 3 are the results of these experiments.

Female DBA/2J mice = test: In vivo toxicity (LD50, survival, histology); design: key to Histologic Findings: Acute Renal Tubular Necrosis / Histologic Findings: Pulmonary Congestion and Edema: 0: absent; +: mild; ++: moderate; +++: severe; settings: for pulmonary congestion and edema (in words): Phe-CHP 600, Leu-CHP 1000, CHP-OEt 550 mg/kg
Description: as §1, §2

[3] = Spectral study of rearrangement/reactions with nucleophiles, reducing and oxidizing agents; format: physicochemical
Description: In order to characterize the products of hydrolysis of AA-CHP's, the hydrolysis of Leu-CHP by LAP was studied by absorption spectrophotometry. […] This was also true for the new maximum at 350 nm and for a second new "maximum" which appeared as a low, broad "peak" merging with 350 peak and centered at about 400 nm. However, by 22 minutes (not shown) the absorbance at 300 and 400 nm had diminished in intensity while the 350 maximum continued to increase, albeit at a slower rate. At pH 7.0 (FIG. 8B), the absorbance at 300 nm continued to slowly increase in intensity even up to 90 minutes after dissolving CHP-OEt (0.2 mg) in DMSO (0.02 ml) into 0.05M Phosphate buffer (3 ml). Furthermore, a second maximum at 350 nm developed but it remaind smaller in intensity than the 300 nm peak.
Table 2 summarizes the results of several separate experiments involving the reactions of CHP-OEt, CHA-OEt, pIQ-OEt and pBQ (0.5-1.0 mM) with various nucleophiles (lysine, 3-MPA) reducing agents (NaBH4, 3-MPA) and oxidizing agents (NaIO4, O2) in ten-fold molar excess in Tris-HCl buffer (0.05M, pH 9.0).
In these studies, CHP-OEt, CHA-OEt and pBQ* were all pure compounds, thus, their absorption could be unequivocably assigned, pIQ-OEt was generated by the autoxidation of CHA-OEt in solution and its presence was noted by the appearance of one absorbance maximum at 400 nm and the development of a distinct yellow color to a previously clear solution of CHA-OEt. […] On the other hand, there was a dissimilarity between the spectra of CHP-OEt and CHA-OEt. CHA-OEt was oxidized by O2 or NaIO4 to the pIQ-OEt with a λmax =400 nm whereas NaIO4 had no effect on the rate or nature of spectral change that occurred when . . .

[4] = Stability in aqueous media; format: physicochemical
[5] = tested on: Leucine Aminopeptidase (LAP); test: Hydrolysis of Leu-CHP by LAP studied by absorption spectrophotometry; format: biochemical; settings: pH 8.5, FIG. 7
Description: Leucine Aminopeptidase (LAP), type III-CP (Sigma) was stored at 0°-4° C. in 0.75M saturated […], 0.1M Tris and 0.005M MgCl2 (pH 8) and contained 210 U/ml. Prior to the hydrolysis experiment, LAP (50λ) was activated by incubating it in 0.025M MnCl2 (0.2 ml), 0.5M Tris.HCl buffer (pH 9.0, 0.2 ml) and demineralized and ultra-filtered H2 O (0.6 ml) for at least 2 hours at 37° C. To each sample test tube was added AA-CHP (1.5 mg) in 0.02M Tris HCl buffer (pH 9.0, 0.5 ml) so that the final concentration was 1 mg/ml AA-CHP. The hydrolysis reaction was allowed to proceed for up to 12 hours and then TLC's were performed by spotting the reaction solution (2-3 μl) on cellulose plates and developing them in Butanol (20 ml)/HAc(4ml)/Pyridine(13.3 ml)/H2 O (16 ml) solvent system. […]
In order to characterize the products of hydrolysis of AA-CHP's, the hydrolysis of Leu-CHP by LAP was studied by absorption spectrophotometry. […] However, by 22 minutes (not shown) the absorbance at 300 and 400 nm had diminished in intensity while the 350 maximum continued to increase, albeit at a slower rate. At pH 7.0 (FIG. 8B), the absorbance at 300 nm continued to slowly increase in intensity even up to 90 minutes after dissolving CHP-OEt (0.2 mg) in DMSO (0.02 ml) into 0.05M Phosphate buffer (3 ml). […]

[6] = tested on: L1210 murine leukemia cells; test: Inhibition of 3H-thymidine incorporation into DNA; format: cell-based
Description: An L1210 murine leukemia cell line was maintained in mice (female DBA/2J strain from the Jackson Laboratory, Bar Harbor, Maine) by transferring every seven days via intraperitoneal (i.p.) injection of 10^5 cells. […] The frozen cells maintained their viability for over two years. For all in vitro and in vivo experiments only freshly harvested intraperitoneally grown L1210 cells were used.
A DBA/2J mouse bearing L1210 cells for 6 days after i.p. inoculation of 1×10^5 cells was sacrificed by cervical dislocation and, using sterile technique, the abdominal skin was incised and pinned back. Using two 10 ml syringes with 21 gauge needles, one being filled with cold phosphate buffer saline (PBS) (9 ml, pH 7.4) and in 3 ml increments, the solution was injected into the peritoneal cavity through one side and withdrawn with the other syringe through the other side. The light pink cell suspension was then centrifuged at 2000 rpm for 5 minutes and the supernatant was decanted. […] After 0, 2, 4, 5 or 6 hours preincubation, 3H-Thymidine (1 μl; 1 μC) was added and then the incubation was continued for another 1/2 hour. The cells were then killed and their proteins precipitated with 5% TCA. […] To each vial was then added more PPO/POPOP/Toluene cocktail (1.5 ml) and the samples were counted. […]

mice = settings: for LD100: i.p., mice
Description: Cysteine hydrochloride was neutralized with 1N NaOH and diluted with PBS so that the final concentration was 30 mg/ml. In those groups that received only the test compounds, a single dose (up to 1000 mg/kg) was given i.p. and any toxic deaths were autopsied and hematoxylin and eosin sections obtained.

[7] = compound added: 3-MPA, pH 8-9, ten-fold excess
[8] = compound added: Lysine, pH 8-9, ten-fold excess
[9] = Leu-CHP 1000 mg/kg i.p. with cysteine
[10] = no cysteine, Leu-CHP 1000 mg/kg, Phe-CHP 600 mg/kg i.p.

## C[C@H](N)C(=O)NN(CC(=O)O)c1ccc(O)cc1 [Ala-CHP]
[1]
  cleavage/hydrolysis by LAP: able to cleave
[2]
  LD50: > 1000 mg/kg
  NOAEL: ≥ 1000 mg/kg
Female DBA/2J mice; 600 mg/kg i.p.
  survivors/total: 5/5
Female DBA/2J mice; 1000 mg/kg i.p.
  survivors/total: 6/6

## CC(C)C[C@H](NC(=O)OC(C)(C)C)C(=O)NN(CC(=O)O)c1ccc(O)cc1 [Boc-Leu-CHP]
[1]
  cleavage/hydrolysis by LAP: not

## CCOC(=O)CNc1ccc(O)cc1 [CHA-OEt, N(p-hydroxyphenyl)glycine ethyl ester, reference compound]
[3]; [7]
  Final Maximum (nm): 300 nm
[3]; pH 8-9
  Initial Maximum (nm): 300 nm

## CCOC(=O)CN(N)c1ccc(O)cc1 [CHP-OEt, α-N-(carboxymethyl ethyl ester)-p-hydroxyphenylhydrazine]
[4]
  stability in aqueous media: obvious instability
[4]; listed as IVa
  stability in aqueous media: decomposes rapidly
[2]
  LD50: 400 to 550 mg/kg
Female DBA/2J mice; 400 mg/kg i.p.
  survivors/total: 3/3
Female DBA/2J mice; 550 mg/kg i.p. in 7% DMSO
  deaths/total: four of four
  survivors/total: 0/4
  time of death after treatment: ≤ 8 h
Female DBA/2J mice; i.p., mice
  Histologic Findings: Acute Renal Tubular Necrosis: 0
  Histologic Findings: Pulmonary Congestion and Edema: +++
  microscopic examination of the heart: no evidence of a toxic insult
Female DBA/2J mice; i.p.
  pulmonary congestion and edema (in words): moderate to severe
[3]; 0.01M Tris buffer pH 9.0, FIG. 8A
  absorption maximum: 300 nm
[3]; 0.05M Phosphate buffer pH 7.0, FIG. 8B
  second absorption maximum: 350 nm
[3]; [7]
  Final Maximum (nm): 300 nm
[3]; [8]
  Final Maximum (nm): 350 nm
[3]; compound added: NaBH4, pH 8-9
  Final Maximum (nm), appears after NaBH4 has decomposed: 350 nm
[3]; compound added: NaBH4, pH 8-9, ten-fold excess
  Final Maximum (nm): 300 nm
[3]; compound added: NaIO4, pH 8-9, ten-fold excess
  Final Maximum (nm): 350 nm
[3]; compound added: none, pH 8-9
  Final Maximum (nm): 350 nm
[3]; pH 8-9
  Initial Maximum (nm): 300 nm

## N[C@@H](CCC(=O)O)C(=O)NN(CC(=O)O)c1ccc(O)cc1 [Glu-CHP]
[1]
  cleavage/hydrolysis by LAP: not
[2]
  LD50: > 1000 mg/kg
  NOAEL: ≥ 1000 mg/kg
Female DBA/2J mice; 600 mg/kg i.p.
  survivors/total: 5/5
Female DBA/2J mice; 1000 mg/kg i.p.
  survivors/total: 6/6

## CC(C)C[C@H](N)C(=O)NN(CC(=O)O)c1ccc(O)cc1 [Leu-CHP, βN-(L-leucyl)-αN-(carboxymethyl)-p-hydroxy-phenylhydrazine]
[5]
  new, more intense absorption maximum appearing during hydrolysis: 350 nm
  original absorption maximum (disappeared during hydrolysis): 300 nm
[1]
  cleavage/hydrolysis by LAP: able to cleave; also recorded: demonstrated
[2]
  LD50: 750 to 1000 mg/kg
Female DBA/2J mice; 600 mg/kg i.p.
  survivors/total: 5/5
Female DBA/2J mice; 750 mg/kg i.p.
  survivors/total: 3/3
Female DBA/2J mice; 1000 mg/kg i.p.
  survivors/total: 0/9
Female DBA/2J mice; i.p., mice
  acute renal tubular necrosis (in words): early signs of ATN
  microscopic examination of the heart: no evidence of a toxic insult
Female DBA/2J mice; i.p.
  pulmonary congestion and edema (in words): moderate to severe
[6]; no pre-incubation (simultaneous exposure), FIG. 12
  inhibition of 3H-thymidine incorporation into DNA: no inhibition
[6]; with pre-incubation
  inhibition of 3H-thymidine incorporation / DNA synthesis (in words): degree of inhibition of ^3 H-thymidine incorporation also increased
mice; 1000 mg/kg i.p., no cysteine
  deaths/total: Nine of nine
mice; 1000 mg/kg i.p., no cysteine, listed as Leu--CHP
  deaths/total: 9/9
mice; [9]
  Time of Death: 72 h
  pulmonary congestion or edema, histology of mouse that died on Day 3: no evidence of pulmonary congestion or edema
mice; Leu-CHP 1000 mg/kg i.p. with cysteine 1000 mg/kg before and after
  deaths/total: one of three
mice; Leu-CHP 1000 mg/kg i.p. with cysteine 1000 mg/kg before and after, listed as Leu--CHP
  deaths/total: 1/3
mice
  LD100: 1000 mg/kg
mice; [10]
  Time of Death: ≤ 8 h
mice; no cysteine, Leu-CHP 1000 mg/kg, Phe-CHP 600 mg/kg i.p., listed as Leu--CHP
  Time of Death: < 8 h

## CCOC(=O)CN(NC(=O)[C@@H](N)CC(C)C)c1ccc(O)cc1 [Leu-CHP-OEt, β-N-(L-leucyl)-α-N-(carboxymethyl ethyl ester)-p-hydroxyphenylhydrazine]
[1]
  cleavage/hydrolysis by LAP: able to cleave

## NCCCC[C@H](N)C(=O)NN(CC(=O)O)c1ccc(O)cc1 [Lys-CHP]
[1]
  cleavage/hydrolysis by LAP: not
[2]
  LD50: > 1000 mg/kg
  NOAEL: ≥ 1000 mg/kg
Female DBA/2J mice; 600 mg/kg i.p.
  survivors/total: 5/5
Female DBA/2J mice; 1000 mg/kg i.p.
  survivors/total: 6/6

## N[C@@H](Cc1ccccc1)C(=O)NN(CC(=O)O)c1ccc(O)cc1 [Phe-CHP]
[1]
  cleavage/hydrolysis by LAP: able to cleave
[2]
  LD50: 400 mg/kg
Female DBA/2J mice; 400 mg/kg i.p.
  survivors/total: 3/5
Female DBA/2J mice; 600 mg/kg i.p.
  survivors/total: 1/7
Female DBA/2J mice; i.p., mice
  Histologic Findings: Acute Renal Tubular Necrosis: +++
  acute renal tubular necrosis (in words): severe acute renal tubular coagulative necrosis
  relative toxicity: most toxic
Female DBA/2J mice; i.p.
  pulmonary congestion and edema (in words): minimal
mice; 600 mg/kg i.p., no cysteine
  deaths/total: 6 of 7
mice; 600 mg/kg i.p., no cysteine, listed as Phe--CHP
  deaths/total: 6/7
mice; Phe-CHP 600 mg/kg i.p. with cysteine 1000 mg/kg before and after
  deaths/total: none
mice; Phe-CHP 600 mg/kg i.p. with cysteine 1000 mg/kg before and after, listed as Phe--CHP
  deaths/total: 0/3
mice
  LD100: 600 mg/kg
mice; [10]
  Time of Death: 36 to 44 h

## CCOC(=O)CN=C1C=CC(=O)C=C1 [pIQ-OEt, reference compound]
[3]; [8]
  Final Maximum (nm): 300 nm
[3]; oxidation by O2 or NaIO4
  λmax of pIQ-OEt formed by oxidation of CHA-OEt: 400 nm
